Reference: PMC5882628, “Development of a Cell-Based Assay to Assess Binding of the proNGF Prodomain to Sortilin” (Cellular and Molecular Neurobiology, 2017)

Experiments:
[1] = target: internalization-mutant sortilin (human) (UniProt Q99523); assay: immunostaining of cells or tissue; HEK293 cells transiently transfected with sortilin (or empty vector) in 96-well dishes, treated 45 min with 50 nM GSTpro or proNGF, washed, fixed, permeabilised (0.1% Triton X-100), stained for sortilin and for GST or the pro domain; automated array-scanner analysis of sortilin-positive and sortilin-negative cells
wt sortilin = assay: Competition of proNGF against GSTpro binding to wt sortilin-transfected HEK cells (stained for GST); assay type: cell-based, human; details: 5, 10, or 25 nM GSTpro concomitantly with 50 nM proNGF; Fig. 3v
Procedure: HEK 293 cells were grown in DMEM with 10% fetal bovine serum. They were transfected with plasmids either encoding wild type sortilin, or sortilin with a mutation that renders it endocytosis deficient, or an empty control vector according to manufacturer’s instructions using 20 µg lipofectamine (Thermo Fischer Scientific) with 8 µg DNA on […] per 6 cm, poly-lysine coated dish. The cells were initially plated into 24-well dishes after transfection. That intermediate step rendered more uniform cell numbers in the 96-well dishes that were used to run the actual assay. […]
A-T Immunohistochemistry on HEK 293 cells using Hoechst staining (nuclei); anti-sortilin staining; or staining directed against the pro domain of proNGF (proNGF/GSTpro); or composite image showing all staining concomitantly as indicated above the panels. a–d Cells transfected with an empty expression vector and treated with GSTpro. e–h Cells transfected with a sortilin expression construct, but not treated with GSTpro. i–l Cells transfected with sortilin and GSTpro treated. m–p, Cells transfected with sortilin and proNGF purified from recombinant E.coli. q–t Cells transfected with sortilin and proNGF purified from a eukaryotic expression system. […] Black columns: Total fluorescence intensity of “sortilin-negative” cells. Red columns: Total fluorescence intensity of sortilin positive cells. […]

sortilin [2] = details: scintillation proximity assay; ref Andersen et al. [2014]; cited from earlier work
Excerpt: The role of sortilin signaling in several pathologic processes makes it a target for drug development. […] In addition to this assay, other in vitro assays including the binding of ligands to membrane fractions derived from sortilin-expressing cells (Carvelli et al. [2017]), surface plasmon resonance, and l ...

proNGF (Homo sapiens) = proNGF (Homo sapiens) (UniProt P01138); details: cited from earlier work
sortilin [3] = target: T1, sortilin (Homo sapiens, UniProt Q99523); assay: Cell-based assay of GSTpro (NGF prodomain) binding/uptake, wt sortilin-transfected HEK293 cells, sortilin/GST double stain, high content imaging, with detergent; details: Fig. 6a; with detergent; sortilin-positive cells; preincubation 1 h, GSTpro 45 min
T1 construct: They were transfected with plasmids either encoding wild type sortilin, or sortilin with a mutation that renders it endocytosis deficient; expressed in transfected cells; host or cells: HEK 293 cells, transient transfection (lipofectamine)
T1 sequence (Q99523 78-831): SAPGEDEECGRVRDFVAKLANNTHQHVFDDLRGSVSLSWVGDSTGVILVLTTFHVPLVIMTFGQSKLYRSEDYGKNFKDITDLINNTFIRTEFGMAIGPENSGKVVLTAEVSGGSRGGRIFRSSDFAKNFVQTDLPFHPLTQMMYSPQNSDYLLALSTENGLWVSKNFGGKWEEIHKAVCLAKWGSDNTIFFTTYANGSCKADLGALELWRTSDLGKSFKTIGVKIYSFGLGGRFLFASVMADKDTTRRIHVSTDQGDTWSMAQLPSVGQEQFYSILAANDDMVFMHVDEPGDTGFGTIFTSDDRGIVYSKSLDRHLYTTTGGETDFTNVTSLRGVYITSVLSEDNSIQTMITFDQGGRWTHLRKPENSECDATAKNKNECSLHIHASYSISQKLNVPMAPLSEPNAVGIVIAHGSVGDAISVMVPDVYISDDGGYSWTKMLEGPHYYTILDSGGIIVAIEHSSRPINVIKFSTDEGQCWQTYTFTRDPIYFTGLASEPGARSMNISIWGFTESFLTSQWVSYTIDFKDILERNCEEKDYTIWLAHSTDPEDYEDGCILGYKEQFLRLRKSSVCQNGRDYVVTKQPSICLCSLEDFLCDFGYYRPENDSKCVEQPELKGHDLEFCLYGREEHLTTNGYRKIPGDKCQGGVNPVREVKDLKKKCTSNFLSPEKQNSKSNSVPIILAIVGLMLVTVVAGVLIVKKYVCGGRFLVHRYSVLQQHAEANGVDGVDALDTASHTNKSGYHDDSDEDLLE
Procedure: HEK 293 cells were grown in DMEM with 10% fetal bovine serum. They were transfected with plasmids either encoding wild type sortilin, or sortilin with a mutation that renders it endocytosis deficient, or an empty control vector according to manufacturer’s instructions using 20 µg lipofectamine (Thermo Fischer Scientific) with 8 µg DNA on […] per 6 cm, poly-lysine coated dish. The cells were initially plated into 24-well dishes after transfection. That intermediate step rendered more uniform cell numbers in the 96-well dishes that were used to run the actual assay. 24 h later, cells were split into black opaque-walled, clear-bottom 96 well dishes at 42000 cells in 80 µl medium/well. […] 1 h after that treatment, the medium was replaced with 80 µl medium containing the same antibody, compounds or peptides included in the preincubation medium, plus recombinant GSTpro or proNGF (either purified in-house from recombinant HEK cells or derived from an E.coli expression system at either 0 nM (negative control), or 50 nM, or, in a few instances at 5 or 10 nM. The respective concentrations are indicated in the figures 45 min after adding GSTpro or proNGF, cells were washed twice with prewarmed PBS and fixed in 4% PFA for 20 min at approximately 20 °C.
The fixed cells were washed with PBS for 15 min, followed by two 15 min washes with PBS with 0.1% Triton X-100. […] Wells to be evaluated for blocking of the sortilin-GSTpro interaction by antibodies were only stained with an antibody against the pro domain of proNGF in 10% FBS at a dilution of 1:1500 (Millipore (N-term) clone EPI318Y, Rabbit Monoclonal Antibody Catalog Number: #04-1142). […]
The following day, wells were washed 3 × 15 min with PBS/0.1% Triton X-100. […] Cellular fluorescence was quantified using an array scanner and the “Neuronal Profiler” Bioapplication (Thermo Fisher Scientific) as described below.
Sortilin-GSTpro interaction was also assessed using HEK cell derived cell lines stably expressing sortilin. […]
Images from 96 well dishes were automatically recorded with a Cellomics ArrayScan VTI HCS Reader (Thermo Scientific) using a 10× microscope objective and the build-in standard autofocus method. Fifteen 1024 × 1024 images in 4 channels (Channel 1 and 2: Filter XF5–Hoechst, to detect nuclei and all cells; Channel 3: XF53-Texas Red to detect, e.g., sortilin-positive cells; Channel 4: Filter XF93 – FITC, to detect cells positive, e.g., for the proNGF pro domain) were recorded per 96 well.
The images were analyzed with the Cellomics assay algorithm NeuronalProfiling.V3.5.

Chain of proNGF (Homo sapiens) (P01138 122-241): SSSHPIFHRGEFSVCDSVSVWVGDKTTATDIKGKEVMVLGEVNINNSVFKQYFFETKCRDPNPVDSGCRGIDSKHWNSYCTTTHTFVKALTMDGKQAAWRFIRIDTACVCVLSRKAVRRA

GSTpro (GST C-terminally linked to the pro domain from NGF) (from UniProt P01138 19-121) (domain or fragment)
GSTpro signal compared to wt sortilin transfected cells [1]: 60 % higher

proNGF isolated from recombinant E. coli: Recombinant human proNGF expressed and purified from E.coli, purchased from Alamone labs
competition against GSTpro binding to sortilin (in words) (wt sortilin): compete against GSTpro binding to wt sortilin

euk. proNGF: proNGF isolated from a mammalian expression system
competition against GSTpro binding to sortilin (in words) (wt sortilin): compete against GSTpro binding to wt sortilin

Cc1cc(=O)oc2c(CN[C@@H](CC(C)C)C(=O)O)c(O)ccc12 [AF40431]
blocking of sortilin-neurotensin interaction (in words) (sortilin [2]): blocked sortilin-neurotensin interaction

sortilin (from UniProt Q99523)
Kd (proNGF (Homo sapiens)): 5 nM

PYIL [reference compound]
reduction of GSTpro signal by neurotensin-derived and control peptides (in words) (sortilin [3]): to a lesser extent also reduced
